The values that follow come from US20230117034A1, “PYRAZOLOTRIAZINES” (Bayer Aktiengesellschaft, priority 2019, published 2023).

Each structure is given as a SMILES string.

Assay [1] relates to CAL-120, human breast adenocarcinoma cells. Kind of assay: Proliferation assay CAL-120 (crystal violet, 4 days). In kind it is cell-based. The note with it: Homo sapiens, CAL-120, 96 h, CAL-120 cells, median, read-out: Prolif-CAL-120, IC50-[mol/l] (median). Summed up:
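IC50 from a 4-parameter fit of crystal violet absorbance (595 nm), scaled between the day-of-dosing plate (0%) and vehicle cells (100%). MDA-MB-231 or CAL-120 cells were treated for 4 days with 0.01–10 micromol/L compound in 0.1% DMSO after 24 h attachment.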

The target in assay [2] is T1, CDK2/CycE (Homo sapiens, UniProt P24941).
T1 construct: purchased ProQinase GmbH (Freiburg, Germany); host or cells: insect cells (Sf9)
Briefly: CDK2/CycE kinase assay (TR-FRET, 2 mM ATP). Format: biochemical. The note with it: 2 mM ATP (high ATP); median; read-out: CDK2/CyclinE, 2 mM ATP (high ATP), IC50 (median). Summed up: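 Biotin-peptide phosphorylation (0.75 µM substrate, 2 mM ATP final, 25 min, 22 °C) by Sf9-expressed GST-CDK2/GST-CycE, after a 15-min compound pre-binding step. Inhibition scaled between enzyme-free (100%) and uninhibited (0%) wells.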
On the technique in general: TR-FRET usually uses a lanthanide donor and a delayed reading to cut background.

In assay [3] the target is T2, CDK12 (nuclear staining in CAL-120 cells) (Homo sapiens, UniProt Q9NYV4).
T2 construct: endogenous in cells; host or cells: CAL-120 human breast cancer cells (DSMZ ACC 459)
T2 sequence (Q9NYV4 whole entry): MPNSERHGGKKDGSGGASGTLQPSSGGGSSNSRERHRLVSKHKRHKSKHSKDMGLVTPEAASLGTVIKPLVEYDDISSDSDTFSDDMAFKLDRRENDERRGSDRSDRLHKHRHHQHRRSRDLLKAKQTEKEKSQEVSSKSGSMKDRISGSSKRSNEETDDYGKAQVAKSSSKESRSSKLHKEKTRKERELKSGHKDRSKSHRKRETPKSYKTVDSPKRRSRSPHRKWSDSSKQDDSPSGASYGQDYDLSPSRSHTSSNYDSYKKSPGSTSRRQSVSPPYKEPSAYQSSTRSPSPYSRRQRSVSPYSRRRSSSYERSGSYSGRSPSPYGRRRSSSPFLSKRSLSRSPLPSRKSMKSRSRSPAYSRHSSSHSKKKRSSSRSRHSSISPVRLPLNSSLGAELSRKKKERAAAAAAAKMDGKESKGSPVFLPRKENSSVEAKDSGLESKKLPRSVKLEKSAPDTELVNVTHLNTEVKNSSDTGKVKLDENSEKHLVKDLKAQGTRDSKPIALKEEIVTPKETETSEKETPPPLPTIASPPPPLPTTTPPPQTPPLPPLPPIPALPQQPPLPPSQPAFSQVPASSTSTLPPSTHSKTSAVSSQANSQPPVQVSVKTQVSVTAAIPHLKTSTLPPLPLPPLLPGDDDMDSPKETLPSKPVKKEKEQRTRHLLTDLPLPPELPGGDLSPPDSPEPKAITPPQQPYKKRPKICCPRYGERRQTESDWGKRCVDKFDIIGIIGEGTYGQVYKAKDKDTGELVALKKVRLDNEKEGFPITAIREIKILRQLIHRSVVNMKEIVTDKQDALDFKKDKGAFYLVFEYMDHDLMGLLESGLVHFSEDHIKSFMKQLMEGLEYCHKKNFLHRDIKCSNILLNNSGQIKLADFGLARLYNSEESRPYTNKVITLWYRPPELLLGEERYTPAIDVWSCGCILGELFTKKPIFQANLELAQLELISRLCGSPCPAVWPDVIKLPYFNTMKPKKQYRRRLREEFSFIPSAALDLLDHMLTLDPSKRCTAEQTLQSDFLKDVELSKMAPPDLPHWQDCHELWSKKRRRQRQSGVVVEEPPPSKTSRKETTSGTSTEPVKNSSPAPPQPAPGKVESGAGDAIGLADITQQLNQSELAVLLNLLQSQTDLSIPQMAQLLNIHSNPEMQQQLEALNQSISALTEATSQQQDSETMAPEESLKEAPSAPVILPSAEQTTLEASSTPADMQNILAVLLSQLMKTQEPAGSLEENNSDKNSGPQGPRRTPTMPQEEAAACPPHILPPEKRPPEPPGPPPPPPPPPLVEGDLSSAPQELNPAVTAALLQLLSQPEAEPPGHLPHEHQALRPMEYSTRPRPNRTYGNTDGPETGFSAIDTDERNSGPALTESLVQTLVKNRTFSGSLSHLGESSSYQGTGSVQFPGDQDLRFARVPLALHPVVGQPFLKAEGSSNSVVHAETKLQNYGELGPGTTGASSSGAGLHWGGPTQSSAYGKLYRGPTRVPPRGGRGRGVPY
T2 sequence (O75909 whole entry partner): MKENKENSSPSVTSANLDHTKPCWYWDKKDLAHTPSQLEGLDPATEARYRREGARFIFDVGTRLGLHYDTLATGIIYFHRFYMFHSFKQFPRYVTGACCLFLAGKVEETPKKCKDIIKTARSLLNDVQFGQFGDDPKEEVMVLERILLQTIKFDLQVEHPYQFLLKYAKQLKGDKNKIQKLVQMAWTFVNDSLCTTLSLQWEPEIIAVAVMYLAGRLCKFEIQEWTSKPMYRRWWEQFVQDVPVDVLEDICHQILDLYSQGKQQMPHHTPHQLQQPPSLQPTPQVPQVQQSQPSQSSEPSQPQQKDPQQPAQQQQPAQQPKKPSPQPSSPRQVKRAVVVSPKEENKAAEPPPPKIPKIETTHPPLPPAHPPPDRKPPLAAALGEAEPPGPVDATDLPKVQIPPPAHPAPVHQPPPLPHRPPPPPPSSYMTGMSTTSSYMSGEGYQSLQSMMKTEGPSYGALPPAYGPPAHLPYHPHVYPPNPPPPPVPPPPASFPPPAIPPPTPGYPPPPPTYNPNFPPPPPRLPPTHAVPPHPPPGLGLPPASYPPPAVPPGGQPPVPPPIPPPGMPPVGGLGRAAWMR
Briefly: CDK12 nuclear protein level: immunofluorescence/high content analysis (CAL-120). In kind it is cell-based. As to conditions: for DC50: CAL-120 cells, 24 h, immunofluorescence, 50% reduction of nuclear CDK12 staining intensity, median, read-out: CDK12 degradation IF, DC50- [mol/l] (median); for (IC50 CDK12 high ATP) to (Degradation DC50 CDK12) ratio: ratio of IC50 CDK12 high ATP kinase assay to DC50 CDK12 degradation (IF, CAL-120). Summed up: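 DC50 is the degrader concentration that halves nuclear CDK12 immunofluorescence relative to controls, measured by high-content imaging. CAL-120 cells were exposed to compound for 24 h at 37 °C before PFA fixation, and signal was normalized to DMSO and control wells.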

Regarding `COc1cccc2[nH]c(CNc3nc(N4CCOCC4)nc4c(CC(F)(F)F)cnn34)nc12` [Example 277, N-[(4-methoxy-1H-benzimidazol-2-yl)methyl]-2-(morpholin-4-yl)-8-(2,2,2-trifluoroethyl)pyrazolo[1,5-a][1,3,5]triazin-4-amine], the IC50 in assay [1] is 30.9 nM; in assay [2] it was over 20000 nM. In addition, the DC50 in assay [3] was 4.48 nM. Also, the “(IC50 CDK12 high ATP) to (Degradation DC50 CDK12) ratio” value in assay [3] amounted to 1071.
`CN1CCN(c2nc(NCc3nc4cc(F)c(F)cc4[nH]3)n3ncc(C4CC4)c3n2)CC1` [Example 311, 8-cyclopropyl-N-[(5,6-difluoro-1H-benzimidazol-2-yl)methyl]-2-(4-methylpiperazin-1-yl)pyrazolo[1,5-a][1,3,5]triazin-4-amine]: the IC50 in assay [1] came out at 8.13 nM. Besides, in assay [2], the IC50 was over 20000 nM. In assay [3], the DC50 came to 6.15 nM and the “(IC50 CDK12 high ATP) to (Degradation DC50 CDK12) ratio” value is listed as over 3251.
In the case of `Fc1ccc2[nH]c(CNc3nc(N4CCOCC4)nc4c(Br)cnn34)nc2c1F` [Example 25, 8-bromo-N-[(4,5-difluoro-1H-benzimidazol-2-yl)methyl]-2-(morpholin-4-yl)pyrazolo[1,5-a][1,3,5]triazin-4-amine], the IC50 in assay [1] worked out at 2.62 nM. The IC50 in assay [2] worked out at 4560 nM. In assay [3], the DC50 stood at 0.674 nM and the “(IC50 CDK12 high ATP) to (Degradation DC50 CDK12) ratio” value was found to be 1084.
The like results for `NC12CC1CN(c1nc(NCc3nc4ccccc4[nH]3)n3ncc(Br)c3n1)C2` (stereo not drawn) [Example 258, 2-(1-amino-3-azabicyclo[3.1.0]hexan-3-yl)-N-(1H-benzimidazol-2-ylmethyl)-8-bromo-pyrazolo[1,5-a][1,3,5]triazin-4-amine] were, in that order, 27.9 nM, 3100 nM, 3.79 nM and 1239.
The like results for `CN(CC1CC1)c1nc(NCc2nc3ccccc3[nH]2)n2ncc(Br)c2n1` [Example 287, N^4-[(1H-benzimidazol-2-yl)methyl]-8-bromo-N^2-(cyclopropylmethyl)-N^2-methylpyrazolo[1,5-a][1,3,5]triazine-2,4-diamine] were, in that order, 33.2 nM, 9480 nM, 101 nM and 106.
Turning to `FC(F)(F)Cc1cnn2c(NCc3nc4cc(Cl)c(Cl)cc4[nH]3)nc(N3CCOCC3)nc12` [Example 302, N-[(5,6-dichloro-1H-benzimidazol-2-yl)methyl]-2-(morpholin-4-yl)-8-(2,2,2-trifluoroethyl)pyrazolo[1,5-a][1,3,5]triazin-4-amine], the IC50 in assay [1] was 8.98 nM; in assay [2], over 20000 nM. In addition, the “(IC50 CDK12 high ATP) to (Degradation DC50 CDK12) ratio” value in assay [3] is 557.
On to `CC1(O)CCN(c2nc(NCc3nc4ccccc4[nH]3)n3ncc(Br)c3n2)C1` (single isomer, unassigned) [Example 282, (3R or S)-1-(4-{[(1H-benzimidazol-2-yl)methyl]amino}-8-bromopyrazolo[1,5-a][1,3,5]triazin-2-yl)-3-methylpyrrolidin-3-ol], for which the IC50 in assay [1] turned out to be 45.2 nM. For the same compound, the IC50 in assay [2] stood at 10200 nM. Also, in assay [3], the DC50 amounted to 27.9 nM and the “(IC50 CDK12 high ATP) to (Degradation DC50 CDK12) ratio” value is given as over 320.
The like results for `N[C@H]1CN(c2nc(NCc3nc4ccccc4[nH]3)n3ncc(Br)c3n2)CC12CC2` [Example 259, 2-[(7R)-7-amino-5-azaspiro[2.4]heptan-5-yl]-N-[(1H-benzimidazol-2-yl)methyl]-8-bromopyrazolo[1,5-a][1,3,5]triazin-4-amine] were, in that order, 11.9 nM, 1400 nM, 7.16 nM and 362.
Regarding `CN(CC(C)(C)O)c1nc(NCc2nc3c(F)c(F)ccc3[nH]2)n2ncc(C3CC3)c2n1` [Example 292, 1-[(8-cyclopropyl-4-{[(4,5-difluoro-1H-benzimidazol-2-yl)methyl]amino}pyrazolo[1,5-a][1,3,5]triazin-2-yl)(methyl)amino]-2-methylpropan-2-ol], the IC50 in assay [1] was 3.01 nM; in assay [2], over 5190 nM. Moreover, the DC50 in assay [3] was found to be 0.878 nM. The “(IC50 CDK12 high ATP) to (Degradation DC50 CDK12) ratio” value in assay [3] is given as 758.
In the case of `Brc1cnn2c(NCc3nc4ccccc4[nH]3)nc(N3C[C@H]4C[C@@H]3CN4)nc12` [Example 269, N-[(1H-benzimidazol-2-yl)methyl]-8-bromo-2-[(1R,4R)-2,5-diazabicyclo[2.2.1]heptan-2-yl]pyrazolo[1,5-a][1,3,5]triazin-4-amine], the results for the IC50 in assay [1] and in assay [2] were 7.31 nM and 4840 nM, respectively. Also, the DC50 in assay [3] was 3.33 nM. The “(IC50 CDK12 high ATP) to (Degradation DC50 CDK12) ratio” value in assay [3] is 2588.
`CN(CC(C)(C)O)c1nc(NCc2nc3cc(F)c(Cl)cc3[nH]2)n2ncc(C3CC3)c2n1` [Example 317, 1-[(4-{[(6-chloro-5-fluoro-1H-benzimidazol-2-yl)methyl]amino}-8-cyclopropylpyrazolo[1,5-a][1,3,5]triazin-2-yl)(methyl)amino]-2-methylpropan-2-ol]: the IC50 in assay [1] came out at 3.66 nM. In addition, the IC50 in assay [2] came out at 10700 nM. In assay [3], the DC50 came to 5.47 nM and the “(IC50 CDK12 high ATP) to (Degradation DC50 CDK12) ratio” value is reported as 179.
`FC(F)(F)Cc1cnn2c(NCc3nc4cc(Cl)ccc4[nH]3)nc(N3CCOCC3)nc12` [Example 299, N-[(5-chloro-1H-benzimidazol-2-yl)methyl]-2-(morpholin-4-yl)-8-(2,2,2-trifluoroethyl)pyrazolo[1,5-a][1,3,5]triazin-4-amine]: the IC50 is 4.71 nM in assay [1] and over 20000 nM in assay [2]. Further, in assay [3], the DC50 turned out to be 7.77 nM. The “(IC50 CDK12 high ATP) to (Degradation DC50 CDK12) ratio” value in assay [3] is 822.
The like results for `NC1CCN(c2nc(NCc3nc4ccccc4[nH]3)n3ncc(Br)c3n2)CC1` [Example 256, 2-(4-aminopiperidin-1-yl)-N-[(1H-benzimidazol-2-yl)methyl]-8-bromopyrazolo[1,5-a][1,3,5]triazin-4-amine] were, in that order, 9.97 nM, 5060 nM, 3.53 nM and over 5662.
As to `FC(F)(F)c1cnn2c(NCc3nc4cc(Cl)ccc4[nH]3)nc(N3CCOCC3)nc12` [Example 275, N-[(5-chloro-1H-benzimidazol-2-yl)methyl]-2-(morpholin-4-yl)-8-(trifluoromethyl)pyrazolo[1,5-a][1,3,5]triazin-4-amine], the IC50 is 3.88 nM in assay [1] and over 20000 nM in assay [2]. Moreover, in assay [3], the DC50 worked out at 1.7 nM. Besides, the “(IC50 CDK12 high ATP) to (Degradation DC50 CDK12) ratio” value in assay [3] is listed as 57.
In the case of `Brc1cnn2c(NCc3nc4ccccc4[nH]3)nc(N3C[C@H]4CC[C@@H]3CN4)nc12` (single isomer, unassigned) [Example 316, N-[(1H-benzimidazol-2-yl)methyl]-8-bromo-2-{[1R or S-(1R*4R*)]-2,5-diazabicyclo[2.2.2]octan-2-yl}pyrazolo[1,5-a][1,3,5]triazin-4-amine], the IC50 in assay [1] was determined as 7.16 nM. Besides, the IC50 in assay [2] stood at 284 nM. Moreover, in assay [3], the DC50 is 5.62 nM and the “(IC50 CDK12 high ATP) to (Degradation DC50 CDK12) ratio” value was found to be 519.
For the compound `CN1CCN(c2nc(NCc3nc4ccccc4[nH]3)n3ncc(C(F)(F)F)c3n2)CC1` [Example 297, N-[(1H-benzimidazol-2-yl)methyl]-2-(4-methylpiperazin-1-yl)-8-(trifluoromethyl)pyrazolo[1,5-a][1,3,5]triazin-4-amine], in assay [1], the IC50 came to 22.3 nM. The IC50 in assay [2] amounted to 13300 nM. In assay [3], the DC50 amounted to 7.59 nM and the “(IC50 CDK12 high ATP) to (Degradation DC50 CDK12) ratio” value came out at 2294.
On the same counts, the results for `Fc1ccc2[nH]c(CNc3nc(N4C[C@H]5CC[C@@H](C4)N5)nc4c(C5CC5)cnn34)nc2c1F` [Example 294, 8-cyclopropyl-2-[(1R,5S)-3,8-diazabicyclo[3.2.1]octan-3-yl]-N-[(4,5-difluoro-1H-benzimidazol-2-yl)methyl]pyrazolo[1,5-a][1,3,5]triazin-4-amine] are 1.42 nM, 17200 nM, 2.73 nM and 684.
With `c1ccc2[nH]c(CNc3nc(N4CCNCC4)nc4c(C5CC5)cnn34)nc2c1` [Example 247, N-[(1H-benzimidazol-2-yl)methyl]-8-cyclopropyl-2-(piperazin-1-yl)pyrazolo[1,5-a][1,3,5]triazin-4-amine], in assay [1], the IC50 was determined as 9.79 nM. In assay [2], the IC50 is over 20000 nM. In addition, in assay [3], the DC50 turned out to be 1.38 nM and the “(IC50 CDK12 high ATP) to (Degradation DC50 CDK12) ratio” value stood at 10678.
Turning to `Fc1cc2nc(CNc3nc(N4CCOCC4)nc4c(C5CC5)cnn34)[nH]c2cc1Cl` [Example 307, N-[(6-chloro-5-fluoro-1H-benzimidazol-2-yl)methyl]-8-cyclopropyl-2-(morpholin-4-yl)pyrazolo[1,5-a][1,3,5]triazin-4-amine], the IC50 in assay [1] is 4.6 nM. For the same compound, the IC50 in assay [2] is over 20000 nM. Moreover, in assay [3], the DC50 was found to be 8.26 nM and the “(IC50 CDK12 high ATP) to (Degradation DC50 CDK12) ratio” value is on record as 190.
